# Results: ChEMBL document CHEMBL4804281, “STK4 inhibitors for treatment of hematologic malignancies” (2020)
# Assays:
# [1] = target: Serine/threonine-protein kinase 24 (Homo sapiens) (UniProt Q9Y6E0); experiment: Inhibition of STK24 (unknown origin) using fluorescein-labelled Ser/Thr-07 peptide as substrate incubated for 1 hr in presence of ATP at Km concentration by Z-LYTE assay
# [2] = target: Serine/threonine-protein kinase WNK1 (Homo sapiens) (UniProt Q9H4A3); experiment: Inhibition of WNK1 in human NCI-H929 cells at 10 uM by mass spectroscopic analysis relative to control; format: cell-based
# Serine/threonine-protein kinase WNK1 (Homo sapiens), sequence (Q9H4A3 whole entry, looked up): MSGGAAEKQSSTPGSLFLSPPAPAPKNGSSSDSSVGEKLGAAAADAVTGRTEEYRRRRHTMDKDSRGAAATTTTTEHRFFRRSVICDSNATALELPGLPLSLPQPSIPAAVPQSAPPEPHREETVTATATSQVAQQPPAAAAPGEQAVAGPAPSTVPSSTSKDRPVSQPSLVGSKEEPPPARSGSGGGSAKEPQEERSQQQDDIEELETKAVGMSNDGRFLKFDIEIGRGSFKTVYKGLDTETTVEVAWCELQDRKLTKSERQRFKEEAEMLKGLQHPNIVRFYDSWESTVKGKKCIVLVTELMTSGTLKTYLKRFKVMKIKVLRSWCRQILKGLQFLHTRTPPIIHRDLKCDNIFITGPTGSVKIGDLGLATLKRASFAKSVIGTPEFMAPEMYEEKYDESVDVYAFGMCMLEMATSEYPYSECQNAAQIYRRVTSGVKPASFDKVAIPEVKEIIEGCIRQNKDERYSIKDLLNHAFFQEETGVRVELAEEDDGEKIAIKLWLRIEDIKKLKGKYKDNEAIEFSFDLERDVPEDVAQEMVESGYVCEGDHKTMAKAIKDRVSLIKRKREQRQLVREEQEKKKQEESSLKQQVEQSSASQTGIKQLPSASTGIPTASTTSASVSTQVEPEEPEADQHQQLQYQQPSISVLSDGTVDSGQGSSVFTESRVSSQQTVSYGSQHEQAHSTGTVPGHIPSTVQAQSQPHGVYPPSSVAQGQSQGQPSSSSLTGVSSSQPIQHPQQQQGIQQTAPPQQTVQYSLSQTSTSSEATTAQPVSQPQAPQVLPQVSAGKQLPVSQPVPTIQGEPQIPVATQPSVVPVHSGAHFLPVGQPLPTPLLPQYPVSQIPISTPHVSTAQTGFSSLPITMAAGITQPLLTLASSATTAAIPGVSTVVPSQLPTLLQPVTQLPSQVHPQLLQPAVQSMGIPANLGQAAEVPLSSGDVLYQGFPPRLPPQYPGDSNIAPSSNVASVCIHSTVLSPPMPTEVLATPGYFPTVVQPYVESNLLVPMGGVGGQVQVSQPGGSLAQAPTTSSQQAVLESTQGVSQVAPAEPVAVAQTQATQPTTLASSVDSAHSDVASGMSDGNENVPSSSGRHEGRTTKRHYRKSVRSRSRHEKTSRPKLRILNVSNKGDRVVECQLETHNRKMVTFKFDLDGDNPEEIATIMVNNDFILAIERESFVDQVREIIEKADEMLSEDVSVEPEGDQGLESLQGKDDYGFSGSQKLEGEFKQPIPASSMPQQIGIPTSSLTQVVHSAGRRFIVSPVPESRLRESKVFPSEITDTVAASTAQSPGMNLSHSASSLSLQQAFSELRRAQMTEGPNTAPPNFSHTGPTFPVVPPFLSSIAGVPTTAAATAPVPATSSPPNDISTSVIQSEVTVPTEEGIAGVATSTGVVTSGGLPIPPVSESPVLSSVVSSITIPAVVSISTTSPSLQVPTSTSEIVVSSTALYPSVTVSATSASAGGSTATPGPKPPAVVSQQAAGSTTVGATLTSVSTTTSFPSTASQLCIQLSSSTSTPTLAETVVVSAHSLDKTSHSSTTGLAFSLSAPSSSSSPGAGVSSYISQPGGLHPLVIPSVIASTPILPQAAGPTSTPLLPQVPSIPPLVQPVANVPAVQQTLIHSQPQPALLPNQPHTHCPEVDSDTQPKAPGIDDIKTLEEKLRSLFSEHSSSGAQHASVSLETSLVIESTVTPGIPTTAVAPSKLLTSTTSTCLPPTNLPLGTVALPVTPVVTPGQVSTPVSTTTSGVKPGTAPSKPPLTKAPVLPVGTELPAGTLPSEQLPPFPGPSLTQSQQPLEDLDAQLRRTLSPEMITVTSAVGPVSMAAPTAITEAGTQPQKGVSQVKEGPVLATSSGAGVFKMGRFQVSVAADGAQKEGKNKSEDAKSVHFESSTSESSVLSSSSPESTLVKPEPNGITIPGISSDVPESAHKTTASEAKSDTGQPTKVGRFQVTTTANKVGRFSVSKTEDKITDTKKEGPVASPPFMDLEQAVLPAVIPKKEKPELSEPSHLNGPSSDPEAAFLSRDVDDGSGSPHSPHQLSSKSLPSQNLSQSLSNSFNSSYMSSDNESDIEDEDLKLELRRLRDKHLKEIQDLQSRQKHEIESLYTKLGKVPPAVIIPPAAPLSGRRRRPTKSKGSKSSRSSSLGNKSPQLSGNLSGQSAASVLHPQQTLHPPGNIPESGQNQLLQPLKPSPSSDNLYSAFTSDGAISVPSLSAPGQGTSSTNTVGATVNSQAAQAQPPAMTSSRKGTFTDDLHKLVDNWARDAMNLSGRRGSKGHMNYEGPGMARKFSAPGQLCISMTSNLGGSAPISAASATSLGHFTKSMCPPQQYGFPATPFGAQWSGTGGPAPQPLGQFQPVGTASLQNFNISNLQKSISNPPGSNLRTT
# [3] = target: MAP kinase-activated protein kinase 3 (Homo sapiens) (UniProt Q16644); experiment: Inhibition of MAPKAPK3 in human NCI-H929 cells at 10 uM by mass spectroscopic analysis relative to control; format: cell-based
# MAP kinase-activated protein kinase 3 (Homo sapiens), sequence (Q16644 whole entry, looked up): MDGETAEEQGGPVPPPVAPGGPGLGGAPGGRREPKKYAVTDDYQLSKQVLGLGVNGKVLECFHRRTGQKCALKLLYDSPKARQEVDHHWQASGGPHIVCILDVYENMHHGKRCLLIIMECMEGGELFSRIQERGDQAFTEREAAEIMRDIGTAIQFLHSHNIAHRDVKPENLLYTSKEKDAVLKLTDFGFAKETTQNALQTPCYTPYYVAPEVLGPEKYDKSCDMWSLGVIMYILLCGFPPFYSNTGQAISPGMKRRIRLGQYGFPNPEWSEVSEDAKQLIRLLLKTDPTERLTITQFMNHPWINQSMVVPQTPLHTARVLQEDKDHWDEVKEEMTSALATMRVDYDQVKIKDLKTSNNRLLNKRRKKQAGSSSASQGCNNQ
# [4] = target: TRAF2 and NCK-interacting protein kinase (Homo sapiens) (UniProt Q9UKE5); experiment: Inhibition of TNIK in human NCI-H929 cells at 10 uM by mass spectroscopic analysis relative to control; format: cell-based
# TRAF2 and NCK-interacting protein kinase (Homo sapiens), sequence (Q9UKE5 whole entry, looked up): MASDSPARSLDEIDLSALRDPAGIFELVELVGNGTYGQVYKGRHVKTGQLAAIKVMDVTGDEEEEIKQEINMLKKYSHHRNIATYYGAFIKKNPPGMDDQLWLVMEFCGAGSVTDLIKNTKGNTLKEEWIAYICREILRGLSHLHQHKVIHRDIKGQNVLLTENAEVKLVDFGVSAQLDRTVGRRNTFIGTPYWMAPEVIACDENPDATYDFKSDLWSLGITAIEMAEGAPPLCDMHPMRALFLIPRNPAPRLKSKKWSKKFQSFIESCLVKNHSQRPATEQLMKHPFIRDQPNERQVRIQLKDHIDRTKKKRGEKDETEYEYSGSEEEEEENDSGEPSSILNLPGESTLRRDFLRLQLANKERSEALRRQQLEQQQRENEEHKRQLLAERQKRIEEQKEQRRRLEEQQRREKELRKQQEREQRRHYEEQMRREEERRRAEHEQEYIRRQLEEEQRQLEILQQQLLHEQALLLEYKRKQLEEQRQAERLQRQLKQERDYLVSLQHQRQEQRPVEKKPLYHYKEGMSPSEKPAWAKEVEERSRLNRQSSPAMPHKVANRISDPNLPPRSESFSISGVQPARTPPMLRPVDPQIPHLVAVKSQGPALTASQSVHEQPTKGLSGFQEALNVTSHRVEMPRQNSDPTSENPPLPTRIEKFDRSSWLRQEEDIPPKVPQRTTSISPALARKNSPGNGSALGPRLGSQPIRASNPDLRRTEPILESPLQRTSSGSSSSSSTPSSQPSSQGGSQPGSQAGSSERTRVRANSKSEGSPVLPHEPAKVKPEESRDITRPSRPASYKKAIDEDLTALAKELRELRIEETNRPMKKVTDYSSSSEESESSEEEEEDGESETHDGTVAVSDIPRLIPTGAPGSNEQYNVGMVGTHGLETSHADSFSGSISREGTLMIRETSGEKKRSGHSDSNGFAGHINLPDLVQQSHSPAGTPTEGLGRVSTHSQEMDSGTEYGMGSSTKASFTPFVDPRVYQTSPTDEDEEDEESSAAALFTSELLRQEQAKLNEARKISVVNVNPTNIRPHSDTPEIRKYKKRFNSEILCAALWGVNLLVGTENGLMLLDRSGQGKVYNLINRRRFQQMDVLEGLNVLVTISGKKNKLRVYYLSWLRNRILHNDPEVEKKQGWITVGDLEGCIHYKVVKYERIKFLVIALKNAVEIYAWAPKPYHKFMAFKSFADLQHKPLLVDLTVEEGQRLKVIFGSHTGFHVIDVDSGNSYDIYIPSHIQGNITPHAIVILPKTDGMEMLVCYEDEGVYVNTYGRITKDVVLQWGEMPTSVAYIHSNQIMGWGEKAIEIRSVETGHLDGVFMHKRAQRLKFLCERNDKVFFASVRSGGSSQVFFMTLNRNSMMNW
# [5] = target: Serine/threonine-protein kinase WNK2 (Homo sapiens) (UniProt Q9Y3S1); experiment: Inhibition of WNK2 in human NCI-H929 cells at 10 uM by mass spectroscopic analysis relative to control; format: cell-based
# [6] = target: Mitogen-activated protein kinase 10 (Homo sapiens) (UniProt P53779); experiment: Inhibition of JNK3 in human NCI-H929 cells at 10 uM by mass spectroscopic analysis relative to control; format: cell-based
# [7] = target: T1, Mitogen-activated protein kinase 13 (Homo sapiens) (UniProt O15264); experiment: Inhibition of P38delta in human NCI-H929 cells at 10 uM by mass spectroscopic analysis relative to control; format: cell-based
# T1 sequence (whole entry): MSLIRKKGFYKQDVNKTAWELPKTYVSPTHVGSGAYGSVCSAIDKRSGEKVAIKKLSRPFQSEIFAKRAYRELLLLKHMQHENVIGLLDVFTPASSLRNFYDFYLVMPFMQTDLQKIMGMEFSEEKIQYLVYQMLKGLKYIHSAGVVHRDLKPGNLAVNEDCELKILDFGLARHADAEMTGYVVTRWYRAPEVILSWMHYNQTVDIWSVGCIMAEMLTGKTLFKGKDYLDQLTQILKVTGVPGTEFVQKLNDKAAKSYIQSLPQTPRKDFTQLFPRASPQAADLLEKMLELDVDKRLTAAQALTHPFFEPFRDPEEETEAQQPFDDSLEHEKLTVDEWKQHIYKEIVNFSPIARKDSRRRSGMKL
# [8] = target: Putative phosphatidylinositol 4-kinase alpha-like protein P2 (Homo sapiens) (UniProt A4QPH2); experiment: Inhibition of PI4KAP2 in human NCI-H929 cells at 10 uM by mass spectroscopic analysis relative to control; format: cell-based
# [9] = target: Serine/threonine-protein kinase WNK3 (Homo sapiens) (UniProt Q9BYP7); experiment: Inhibition of WNK3 in human NCI-H929 cells at 10 uM by mass spectroscopic analysis relative to control; format: cell-based
# [10] = target: T2, Kinase suppressor of Ras 1 (Homo sapiens) (UniProt Q8IVT5); experiment: Inhibition of KSR1 in human NCI-H929 cells at 10 uM by mass spectroscopic analysis relative to control; format: cell-based
# T2 sequence (whole entry): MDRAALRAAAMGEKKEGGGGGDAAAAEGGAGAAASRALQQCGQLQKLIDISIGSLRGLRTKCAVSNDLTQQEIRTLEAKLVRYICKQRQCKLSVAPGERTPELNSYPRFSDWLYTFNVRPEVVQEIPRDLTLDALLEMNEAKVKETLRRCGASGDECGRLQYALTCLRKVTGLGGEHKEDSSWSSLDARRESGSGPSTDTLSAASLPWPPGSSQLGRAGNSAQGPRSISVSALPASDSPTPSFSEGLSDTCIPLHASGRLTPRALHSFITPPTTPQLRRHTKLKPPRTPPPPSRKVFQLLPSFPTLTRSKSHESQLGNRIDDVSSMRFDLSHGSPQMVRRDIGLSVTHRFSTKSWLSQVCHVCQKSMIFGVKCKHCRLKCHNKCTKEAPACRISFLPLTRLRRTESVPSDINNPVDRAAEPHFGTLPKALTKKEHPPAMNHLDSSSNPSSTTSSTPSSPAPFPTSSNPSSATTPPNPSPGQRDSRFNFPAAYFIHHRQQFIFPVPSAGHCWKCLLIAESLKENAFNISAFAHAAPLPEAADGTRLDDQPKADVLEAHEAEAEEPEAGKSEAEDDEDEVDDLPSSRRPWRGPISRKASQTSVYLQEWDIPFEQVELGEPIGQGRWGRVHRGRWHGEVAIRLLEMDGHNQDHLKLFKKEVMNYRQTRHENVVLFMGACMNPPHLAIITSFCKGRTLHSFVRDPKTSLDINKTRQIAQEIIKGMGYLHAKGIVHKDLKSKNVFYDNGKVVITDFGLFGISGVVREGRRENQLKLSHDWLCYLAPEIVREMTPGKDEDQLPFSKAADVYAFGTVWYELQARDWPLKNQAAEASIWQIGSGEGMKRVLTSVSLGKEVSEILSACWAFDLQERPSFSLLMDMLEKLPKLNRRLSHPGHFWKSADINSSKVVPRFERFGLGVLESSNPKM
# [11] = target: Calcium/calmodulin-dependent protein kinase type II subunit beta (Homo sapiens) (UniProt Q13554); experiment: Inhibition of CAMK2B in human NCI-H929 cells at 10 uM by mass spectroscopic analysis relative to control; format: cell-based
# [12] = target: Serine/threonine-protein kinase Nek6 (Homo sapiens) (UniProt Q9HC98); experiment: Inhibition of NEK6 in human NCI-H929 cells at 10 uM by mass spectroscopic analysis relative to control; format: cell-based
# Serine/threonine-protein kinase Nek6 (Homo sapiens), sequence (Q9HC98 whole entry): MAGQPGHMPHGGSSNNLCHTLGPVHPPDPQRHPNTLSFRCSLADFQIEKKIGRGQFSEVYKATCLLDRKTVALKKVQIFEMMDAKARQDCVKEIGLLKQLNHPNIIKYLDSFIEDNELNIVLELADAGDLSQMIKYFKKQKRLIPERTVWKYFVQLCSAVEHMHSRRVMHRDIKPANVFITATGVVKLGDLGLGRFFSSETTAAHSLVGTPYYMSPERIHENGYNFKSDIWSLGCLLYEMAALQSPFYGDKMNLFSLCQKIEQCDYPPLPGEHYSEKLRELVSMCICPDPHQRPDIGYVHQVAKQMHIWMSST
# [13] = target: Tyrosine-protein kinase Fyn (Homo sapiens) (UniProt P06241); experiment: Inhibition of FYN in human NCI-H929 cells at 10 uM by mass spectroscopic analysis relative to control; format: cell-based
# [14] = target: Serine/threonine-protein kinase 25 (Homo sapiens) (UniProt O00506); experiment: Inhibition of YSK1 in human NCI-H929 cells at 10 uM by mass spectroscopic analysis relative to control; format: cell-based
# Serine/threonine-protein kinase 25 (Homo sapiens), sequence (O00506 whole entry, looked up): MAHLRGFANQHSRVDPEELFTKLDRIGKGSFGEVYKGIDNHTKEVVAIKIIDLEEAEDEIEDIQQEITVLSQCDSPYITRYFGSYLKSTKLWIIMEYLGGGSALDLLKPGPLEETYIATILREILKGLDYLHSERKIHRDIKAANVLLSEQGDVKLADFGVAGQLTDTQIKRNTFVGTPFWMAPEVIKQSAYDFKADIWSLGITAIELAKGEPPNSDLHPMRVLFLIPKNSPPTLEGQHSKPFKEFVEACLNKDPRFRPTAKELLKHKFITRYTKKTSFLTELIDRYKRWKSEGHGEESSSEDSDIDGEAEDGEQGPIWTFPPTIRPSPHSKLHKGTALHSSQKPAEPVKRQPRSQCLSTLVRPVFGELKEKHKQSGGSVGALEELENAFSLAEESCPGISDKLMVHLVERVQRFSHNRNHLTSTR
# [15] = target: Calcium/calmodulin-dependent protein kinase type II subunit alpha (Homo sapiens) (UniProt Q9UQM7); experiment: Inhibition of CAMK2A in human NCI-H929 cells at 10 uM by mass spectroscopic analysis relative to control; format: cell-based
Structure (SMILES),IC50 [1],inhibition [2],inhibition [3],inhibition [4],inhibition [5],inhibition [6],inhibition [7],inhibition [8],inhibition [9],inhibition [10],inhibition [11],inhibition [12],inhibition [13],inhibition [14],inhibition [15]
COc1cc(NS(=O)(=O)C2CC2)ccc1-c1cnc(N)c(-c2ccc3c(c2)CCNC3=O)c1,200 nM,0%,0%,> 90%,0%,75%,0%,0%,0%,0%,0%,0%,0%,0%,0%
Nc1ncc(-c2ccc(NS(=O)(=O)C3CC3)cc2OC2CCCCC2)cc1-c1ccc2c(c1)CCNC2=O,> 900 nM,0%,0%,50%,0%,0%,0%,0%,0%,0%,0%,0%,0%,,0%
Nc1ncc(-c2ccc(NS(=O)(=O)C3CC3)cc2F)cc1-c1ccc2c(c1)CCNC2=O,40 nM,0%,0%,> 90%,0%,0%,0%,0%,0%,0%,0%,0%,0%,< 75%,0%

# Other lines, results leading:
IC50 [1],inhibition [2],inhibition [3],inhibition [4],inhibition [5],inhibition [6],inhibition [7],inhibition [8],inhibition [9],inhibition [10],inhibition [11],inhibition [12],inhibition [13],inhibition [14],inhibition [15],Structure (SMILES)
40 nM,0%,0%,> 90%,0%,0%,0%,0%,0%,0%,0%,0%,0%,< 90%,0%,CN(C1CC1)S(=O)(=O)c1ccc(-c2cnc(N)c(-c3ccc4c(c3)CCNC4=O)c2)c(F)c1
> 900 nM,0%,0%,> 90%,0%,0%,0%,0%,0%,0%,0%,0%,0%,0%,0%,Nc1ncc(-c2cccc3ncsc23)cc1-c1ccc2c(c1)CCNC2=O
> 900 nM,> 100%,0%,> 90%,> 100%,0%,0%,0%,> 100%,0%,0%,0%,0%,0%,0%,Nc1ncc(-c2cccc([N+](=O)[O-])c2F)cc1-c1ccc2c(c1)CCNC2=O
